Experiment: first-order primary biodegradation rate constant k (sorption-corrected, fDis-corrected) (d-1); higher = faster biodegradation
In short: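 Sieved sediment at 50 g wet solid L^–1 was combined with river water from river segments in Germany, Switzerland, Spain and Greece, and 129 compounds were each added at 1 μg L^–1. The mixtures were shaken in the dark for 10 days at river water temperature (20.5 ± 3.5 °C), with three replicates. Filtered water-phase subsamples were analysed by ultra-high-performance liquid chromatography with Orbitrap tandem mass spectrometry. First-order rate constants were obtained by regressing log peak area, correcting for dissipation in azide-sterilised sorption controls and dividing by the dissolved fraction, with invalid fits excluded.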

[1] = river segment: Germany (DE) H_Contam, incubation temperature 24 °C
[2] = river segment: Germany (DE) T_Contam, incubation temperature 24 °C
[3] = river segment: Germany (DE) T_Pris, incubation temperature 24 °C
[4] = river segment: Greece (EL) A_Contam, incubation temperature 19 °C
[5] = river segment: Greece (EL) G_Pris, incubation temperature 19 °C
[6] = river segment: Greece (EL) L_Contam, incubation temperature 19 °C
[7] = river segment: Spain (ES) B_Contam, incubation temperature 24 °C
[8] = river segment: Spain (ES) C_Contam, incubation temperature 24 °C
[9] = river segment: Spain (ES) F_Pris_Salt, incubation temperature 24 °C
[10] = river segment: Spain (ES) L_Contam, incubation temperature 24 °C
[11] = river segment: Switzerland (CH) C_Contam, incubation temperature 17 °C
[12] = river segment: Switzerland (CH) R_Contam, incubation temperature 17 °C
[13] = river segment: Switzerland (CH) U_Contam, incubation temperature 17 °C
[14] = river segment: Switzerland (CH) U_Pris, incubation temperature 17 °C

Compound	first-order primary biodegradation rate constant k [1]	first-order primary biodegradation rate constant k [2]	first-order primary biodegradation rate constant k [3]	first-order primary biodegradation rate constant k [4]	first-order primary biodegradation rate constant k [5]	first-order primary biodegradation rate constant k [6]	first-order primary biodegradation rate constant k [7]	first-order primary biodegradation rate constant k [8]	first-order primary biodegradation rate constant k [9]	first-order primary biodegradation rate constant k [10]	first-order primary biodegradation rate constant k [11]	first-order primary biodegradation rate constant k [12]	first-order primary biodegradation rate constant k [13]	first-order primary biodegradation rate constant k [14]
Cc1ccc(-c2nc3ccc(C)cn3c2CC(=O)N(C)C)cc1 [Zolpidem]	0.202	0.672	0.0723	0.464	0.19	2.27	0.709	0.0357	0.00549	0.761	0.0346	0.0249	0.0604	0.135
Cc1ccc(S(=O)(=O)O)cc1 [p-Toluenesulfonic acid]	1.06	0.52	0.422	0.369	0.0811	0.27	0.18	0.543	0.0548	0.55	0.764	0.292	0.186	0.12

Source: the supplement of paper PMC11562712
